27 molecules from patent publication US11504349B2, “Composition for preventing or treating TNF-related diseases, containing novel derivative as active ingredient, and method for inhibiting TNF activity by using same” (ILAB, priority 2017, dated 2022) can be followed below.

By inhibition is commonly meant the percentage by which the read-out fell short of the control. Low values mean little suppression, high ones strong suppression. What is called pIC50 is −log10 of the IC50, conventionally taken in molar units. Broadly, the CC50 is the concentration that lowers cell viability or growth by half. Low values mean harm at low concentration, high ones better tolerance by the cells. By melting point is commonly meant the temperature of the solid-liquid transition.

pIC50: −log10 of the molar value.

The target of one series is TNF (Homo sapiens, UniProt P01375). In words: TNF-neutralization bioassay: TNF-induced cell death of LM cells (MTT). The conditions noted are these: for inhibition at 50 µM: compound 50 μM, TNF 20 ng/ml, actinomycin D, LM cells, 24 hours; for pIC50: inhibition of TNF-induced LM cell death. The class given is cell-based. As to the method:
(§1) First, the addition of recombinant TNF to mouse fibroblast LM cells induces cell death, and thus, by using the same, the TNF-neutralization bioassay was constructed. In other words, LM cells were pretreated with TNF (20 ng/ml) and the compounds synthesized in the above examples at various concentrations (5×10^4 cells/well), and a sensitizer actinomycin D ([…]) was added, and cultured in a CO2 incubator for 24 hours, and then the MTT assay was carried out. At this time, 10 μl of MTT (5 mg/ml stock) was added, reacted for 4 hours, and then dissolved in DMSO to measure the absorbance at 570 nm. First, the TNF cell death inhibition/neutralization action of TNF-target expected compounds at single concentration (50 or 10 μM) was measured. Second, IC50 values were determined by treating with the compounds having an excellent effect at different concentrations. The % inhibition of TNF was calculated using the following formula: % inhibition of TNF=(OD value of a group treated with TNF and compound−OD value of TNF treated group/(OD value of TNF untreated group−OD value of TNF treated group)×100.
(§2) IC50 values were statistically analyzed using Prism 6 (GraphPad) (IC50: 50% inhibitory concentration, CC50: 50% cytotoxic concentration).

Series [1] can be described thus: Cytotoxicity (CC50) in LM cells, MTT assay. The format is cell-based. The conditions noted are these: mouse, LM cells (mouse fibroblasts); 50% cytotoxic concentration. Here is the method: as §1, §2
(Formazan colour is commonly taken as a measure of viable cells.)

Sequence of TNF (P01375 77-233 limits assumed): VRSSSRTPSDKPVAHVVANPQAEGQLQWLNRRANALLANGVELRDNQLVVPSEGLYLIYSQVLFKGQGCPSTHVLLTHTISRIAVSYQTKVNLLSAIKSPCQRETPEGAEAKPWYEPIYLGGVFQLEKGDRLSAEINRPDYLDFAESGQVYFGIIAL

`O=C(O)c1c(-c2ccc(F)c(F)c2)oc2ccc(Cl)cc2c1=O` [Example 67, 2-(3,4-difluorophenyl)-3-carboxy-6-chloro-(4H)-4-benzopyranone] had a melting point of 195 to 198 °C. At TNF, this molecule gave an inhibition at 50 µM of 100% and a pIC50 of 5.41. This molecule showed a 50% cytotoxic concentration (CC50) at 24 h in series [1] of 21 µM.
The matching figures for `O=C(O)c1c(-c2cccc(F)c2F)oc2ccc(Br)cc2c1=O` [Example 57, 2-(2,3-difluorophenyl)-3-carboxy-6-bromo-(4H)-4-benzopyranone]: no less than 120 °C, 100%, 4.99 and 47 µM.
In the case of `O=C(O)c1c(-c2ccccc2Cl)oc2ccccc2c1=O` [Example 11, 2-(2-chlorophenyl)-3-carboxy-(4H)-4-benzopyranone], the melting point lay in the range of 133 to 135 °C. The molecule also registered an inhibition at 50 µM on TNF of 60.6%.
In the same order, the values of `COc1ccc(-c2oc3ccccc3c(=O)c2C(=O)O)cc1OC` [Example 8, 2-(3,4-dimethoxyphenyl)-3-carboxy-(4H)-4-benzopyranone] are 237 to 238 °C and 24.3%.
In the same order, the values of `Cc1ccc2c(=O)c(C(=O)O)c(-c3cccc(F)c3)oc2c1` [Example 42, 2-(3-fluorophenyl)-3-carboxy-7-methyl-(4H)-4-benzopyranone] are 178 to 181 °C and 23%.
The matching figures for `Cc1ccc2oc(-c3cccc(F)c3F)c(C(=O)O)c(=O)c2c1` [Example 54, 2-(2,3-difluorophenyl)-3-carboxy-6-methyl-(4H)-4-benzopyranone]: 120 to 122 °C and 26.5%.
Molecule `COc1ccc2oc(-c3cccs3)c(C(=O)O)c(=O)c2c1` [Example 14, 2-(2-thiophenyl)-3-carboxy-6-methoxy-(4H)-4-benzopyranone] showed a melting point of 172 to 174 °C. For the same molecule, testing at 50 µM on TNF gave an inhibition of 38.8%.
`Cc1ccc2oc(-c3cc(F)cc(F)c3)c(C(=O)O)c(=O)c2c1` [Example 49, 2-(3,5-difluorophenyl)-3-carboxy-6-methyl-(4H)-4-benzopyranone] registered a melting point of 238 to 240 °C. Moreover, at TNF, the inhibition at 50 µM was determined as 37.7%.
In the same order, the values of `Cc1ccc2c(=O)c(C(=O)O)c(-c3ccco3)oc2c1` [Example 21, 2-(2-furanyl)-3-carboxy-7-methyl-(4H)-4-benzopyranone] are 217 to 218 °C and 55.2%.
The matching figures for `Cc1cccc(-c2oc3c(C)cccc3c(=O)c2C(=O)O)c1` [Example 25, 2-(3-methylphenyl)-3-carboxy-8-methyl-(4H)-4-benzopyranone]: 209 to 211 °C and 41%.
In the same order, the values of `Cc1ccc2oc(-c3ccc(F)c(F)c3)c(C(=O)O)c(=O)c2c1` [Example 66, 2-(3,4-difluorophenyl)-3-carboxy-6-methyl-(4H)-4-benzopyranone] are 222 to 223 °C and 37%.
For the molecule `Cc1ccc2c(=O)c(C(=O)O)c(-c3ccc(F)c(F)c3)oc2c1` [Example 65, 2-(3,4-difluorophenyl)-3-carboxy-7-methyl-(4H)-4-benzopyranone], the melting point lay within 202 to 204 °C. Moreover, the inhibition at 50 µM on TNF is 25.1%.
Consider `Cc1cccc(-c2oc3ccc(Cl)cc3c(=O)c2C(=O)O)c1` [Example 29, 2-(3-methylphenyl)-3-carboxy-6-chloro-(4H)-4-benzopyranone], for which the melting point was 218 to 220 °C. On TNF, this molecule yielded an inhibition at 50 µM of 45.7%.
As for `Cc1cccc(-c2oc3cc(Cl)ccc3c(=O)c2C(=O)O)c1` [Example 28, 2-(3-methylphenyl)-3-carboxy-7-chloro-(4H)-4-benzopyranone], the melting point is 179 to 181 °C. This molecule registered an inhibition at 50 µM at TNF of 34.9%.
The matching figures for `COc1cccc2c(=O)c(C(=O)O)c(-c3cccs3)oc12` [Example 12, 2-(2-thiophenyl)-3-carboxy-8-methoxy-(4H)-4-benzopyranone]: 196 to 198 °C and 62.5%.
In the same order, the values of `COc1ccc2c(=O)c(C(=O)O)c(-c3ccccc3Cl)oc2c1` [Example 10, 2-(2-chlorophenyl)-3-carboxy-7-methoxy-(4H)-4-benzopyranone] are 130 to 132 °C and 45.6%.
In the same order, the values of `O=C(O)c1c(-c2cccs2)oc2ccc(Br)cc2c1=O` [Example 36, 2-(2-thiophenyl)-3-carboxy-6-bromo-(4H)-4-benzopyranone] are 210 to 212 °C and 27%.
Turning to `Cc1ccc2c(=O)c(C(=O)O)c(-c3cccc(F)c3F)oc2c1` [Example 53, 2-(2,3-difluorophenyl)-3-carboxy-7-methyl-(4H)-4-benzopyranone], the melting point fell in the range of 155 to 156 °C. The same molecule came in with an inhibition at 50 µM on TNF of 22.8%.
The matching figures for `COc1cccc2c(=O)c(C(=O)O)c(-c3cccc(C)c3)oc12` [Example 5, 2-(3-methylphenyl)-3-carboxy-8-methoxy-(4H)-4-benzopyranone]: 192 to 195 °C and 34.4%.
The matching figures for `Cc1ccc2c(=O)c(C(=O)O)c(-c3cc(F)cc(F)c3)oc2c1` [Example 48, 2-(3,5-difluorophenyl)-3-carboxy-7-methyl-(4H)-4-benzopyranone]: 220 to 222 °C and 29%.
In the same order, the values of `Cc1cccc2c(=O)c(C(=O)O)c(-c3ccc(Cl)cc3)oc12` [Example 68, 2-(4-chlorophenyl)-3-carboxy-8-methyl-(4H)-4-benzopyranone] are 217 to 219 °C and 15.8%.
`Cc1cccc2c(=O)c(C(=O)O)c(-c3ccc(F)c(F)c3)oc12` [Example 64, 2-(3,4-difluorophenyl)-3-carboxy-8-methyl-(4H)-4-benzopyranone]: the melting point lay in the range of 203 to 204 °C. In addition, the inhibition at 50 µM against TNF was found to be 47.2%.
In the same order, the values of `COc1ccc(-c2oc3cc(Cl)ccc3c(=O)c2C(=O)O)cc1OC` [Example 39, 2-(3,4-dimethoxyphenyl)-3-carboxy-7-chloro-(4H)-4-benzopyranone] are 226 to 227 °C and 24.5%.
In the same order, the values of `Cc1ccc2oc(-c3ccco3)c(C(=O)O)c(=O)c2c1` [Example 22, 2-(2-furanyl)-3-carboxy-6-methyl-(4H)-4-benzopyranone] are 195 to 197 °C and 50.4%.
With `Cc1cccc2c(=O)c(C(=O)O)c(-c3cccs3)oc12` [Example 31, 2-(2-thiophenyl)-3-carboxy-8-methyl-(4H)-4-benzopyranone], the melting point was in the range of 205 to 206 °C. The same molecule registered an inhibition at 50 µM on TNF of 24.8%.
With `Cc1cccc2c(=O)c(C(=O)O)c(-c3cccc(F)c3F)oc12` [Example 52, 2-(2,3-difluorophenyl)-3-carboxy-8-methyl-(4H)-4-benzopyranone], the melting point lay within 167 to 169 °C. Also, the inhibition at 50 µM against TNF was found to be 18.5%.
In the same order, the values of `O=C(O)c1c(-c2ccc(Cl)cc2)oc2ccccc2c1=O` [Example 73, 2-(4-chlorophenyl)-3-carboxy-(4H)-4-benzopyranone] are 212 to 213 °C and 42%.
